Counter-ions that a name gives are not always drawn.
Columns and labels:
Format in all cases: biochemical
[1] = system: Human Plasma; test: Human plasma anticoagulation, thrombin time (TT); conditions: concentration required to double the clotting time
Experimental: (§1) Dog plasma and rat plasma is obtained from conscious mixed-breed hounds (either sex, Hazelton-LRE, Kalamazoo, Mich., U.S.A.) or from anesthetized male Sprague-Dawley rats (Harlan Sprague-Dawley, Inc., Indianapolis, Ind., U.S.A.) by venipuncture into 3.8 percent citrate. Fibrinogen is prepared from in-date ACD human blood as the fraction I-2 according to previous procedures and specifications. […] Human fibrinogen is also purchased as 98 percent pure/plasmin free from American Diagnostica, Greenwich, Conn. Coagulation reagents ACTIN, Thromboplastin, and Human plasma are from Baxter Healthcare Corp., Dade Division, Miami, Fla. Bovine thrombin from Parke-Davis ([…], Mich.) is used for coagulation assays in plasma.
(§2) Coagulation assay procedures are as previously described. […] A CoAScreener coagulation instrument (American LABor, Inc.) is used for all coagulation assay measurements. The prothrombin time (PT) is measured by adding 0.05 mL saline and 0.05 mL Thromboplastin-C reagent to 0.05 mL test plasma. The activated partial thromboplastin time (APTT) is measured by incubation of 0.05 mL test plasma with 0.05 mL Actin reagent for 120 seconds followed by 0.05 mL CaCl2 (0.02M). The thrombin time (TT) is measured by adding 0.05 mL saline and 0.05 mL thrombin (10 NIH units/mL) to 0.05 mL test plasma. The compounds of Formula I are added to human or animal plasma over a wide range of concentrations to determine prolongation effects on the APTT, PT, and TT assays. Linear extrapolations are performed to estimate the concentrations required to double the clotting time for each assay.

[2] = target: Human Thrombin (Homo sapiens, UniProt P00734); test: Inhibition of the amidase activity of thrombin (Kass); conditions: chromogenic substrate N-benzoyl-Phe-Val-Arg-p-nitroanilide; mean over range of concentrations
[3] = system: Human Plasma; test: Human plasma anticoagulation, activated partial thromboplastin time (APTT); conditions: concentration required to double the clotting time
Experimental: as §1, §2

[4] = target: T1, Bovine trypsin (Bos taurus, UniProt P00760); test: Kass, trypsin chromogenic substrate assay; conditions: substrate N-Benzoyl-Phe-Val-Arg-p-nitroanilide
T1 construct: Bovine trypsin is purchased from Worthington Biochemicals; purchased Worthington Biochemicals, Freehold, N.J
T1 sequence (P00760 24-246): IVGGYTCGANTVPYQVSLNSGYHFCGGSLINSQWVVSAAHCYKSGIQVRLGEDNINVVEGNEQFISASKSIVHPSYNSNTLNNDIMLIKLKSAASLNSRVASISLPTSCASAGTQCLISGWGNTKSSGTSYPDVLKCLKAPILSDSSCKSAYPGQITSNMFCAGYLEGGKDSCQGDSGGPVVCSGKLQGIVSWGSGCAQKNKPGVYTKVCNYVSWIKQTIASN

[5] = system: Human Plasma; test: Human plasma anticoagulation, prothrombin time (PT); conditions: concentration required to double the clotting time
Experimental: as §1, §2

Compound	Kass × 10^6 (L/mole) Human Thrombin [2]	Kass × 10^6 (L/mole) Trypsin [4]	Human Plasma Anticoagulation 2x Clotting time TT [1] [ng/mL]	Human Plasma Anticoagulation 2x Clotting time APTT [3]	Human Plasma Anticoagulation 2x Clotting time PT [5]
1-Piq-Pro-p-NHCH2 C6 H4 C(NH)NH2.2HCl [Example 18]	–	–	7	–	–
CCS(=O)(=O)N[C@@H](C(=O)N1[C@H](C(=O)NCc2ccc(C(=N)N)cc2)C[C@@H]2CCCC[C@@H]21)c1ccccc1 (relative stereo) [Example 44, EtSO2 -Phg-cis-Ohi-p-NHCH2 C6 H4 C(NH)NH2.HCl]	–	–	4.	–	–
Cl.N=C(N)C1=CNC(CNC(=O)[C@@H]2CCCN2C(=O)[C@@H](CC2CCCCC2)NCC(=O)O)CC1 (stereo partly drawn) [Example 68, HO2 CCH2 -D-Cha-Pro-2-NHCH2 -5-amidino-5,6-dehydro-piperidine.HCl]	600 × 10^6 L/mole	–	4.	49 ng/mL	190 ng/mL
Cl.N=C(N)N1CC=C(CNC(=O)[C@@H]2CCCN2C(=O)[C@@H](CC2CCCCC2)NCC(=O)O)CC1 [Example 70, HO2 CCH2 -D-Cha-Pro-4-NHCH2 -1-amidino-3,4-dehydro-piperidine.HCl]	430 × 10^6 L/mole	9.8 × 10^6 L/mole	2	160 ng/mL	180 ng/mL
Nc1ccc(CNC(=O)[C@@H]2CCCN2C(=O)[C@@H](CC2CCCCC2)NCC(=O)O)cc1F [Example 77, HO2 CCH2 -D-Cha-Pro-4-NHCH2 -2-F-aniline.HCl]	11 × 10^6 L/mole	–	53	1,600 ng/mL	890 ng/mL
NCC1CCC(CNC(=O)[C@@H]2CCCN2C(=O)[C@@H](CC2CCCCC2)NCC(=O)O)CC1 (stereo partly drawn) [Example 79, HO2 CCH2 -D-Cha-Pro-4-NHCH2 C6 H10 CH2 NH2.HCl]	2.0 × 10^6 L/mole	0.24 × 10^6 L/mole	140	1,700 ng/mL	2,400 ng/mL
CCS(=O)(=O)N[C@H](CC1CCCCC1)C(=O)N1CCC[C@H]1C(=O)NCc1ccc(C(=N)N)cc1.Cl [Example 80, EtSO2 -D-Cha-Pro-4-NHCH2 C6 H4 C(NH)NH2.HCl]	–	90. × 10^6 L/mole	4	40 ng/mL	130 ng/mL
CCS(=O)(=O)N[C@H](CC1CCCCC1)C(=O)N1CCC[C@H]1C(=O)NCc1ccc(N)cc1F.Cl [Example 82, EtSO2 -D-Cha-Pro-4-NHCH2 -3-F-C6 H3 NH2.HCl]	5.0 × 10^6 L/mole	–	130	3,800 ng/mL	3,000 ng/mL
N=C(N)c1ccc(CNC(=O)[C@@H]2CCCN2C(=O)[C@H](NCC(=O)O)C2CCCCC2)cc1 [Example 86, HOOCCH2 -D-Chg-Pro-p-NHCH2 C6 H4 C(NH)NH2.HCl]	–	–	4	–	–
EtSO2 -D-Phe-Pro-p-NHCH2 -C6 H4 C(=NH)NH2.HCl [Example 23]	–	–	7	–	–
HOOCCH2 -D-Phe-Pro-p-NHCH2 C6 H4 C(NH)NH2.HCl [Example 46]	–	–	2.	–	–

Continued, in another order:

Kass × 10^6 (L/mole) Human Thrombin [2]	Kass × 10^6 (L/mole) Trypsin [4]	Compound	Human Plasma Anticoagulation 2x Clotting time TT [1] [ng/mL]	Human Plasma Anticoagulation 2x Clotting time APTT [3]	Human Plasma Anticoagulation 2x Clotting time PT [5]
7.6 × 10^6 L/mole	–	Nc1ccc(CNC(=O)[C@@H]2CCCN2C(=O)[C@@H](CC2CCCCC2)NCC(=O)O)cc1 [Example 62, HO2 CCH2 -D-Cha-Pro-4-NHCH2 C6 H4 NH2.HCl]	54	–	–
0.31 × 10^6 L/mole	–	Nc1ccc(CCNC(=O)[C@@H]2CCCN2C(=O)[C@@H](CC2CCCCC2)NCC(=O)O)cc1 [Example 63, HO2 CCH2 -D-Cha-Pro-4-NHCH2 CH2 C6 H4 NH2.HCl]	680	–	–
4,500 × 10^6 L/mole	–	Cl.N=C(N)c1cc(CNC(=O)[C@@H]2CCCN2C(=O)[C@@H](CC2CCCCC2)NCC(=O)O)cs1 [Example 65, HO2 CCH2 -D-Cha-Pro-4-NHCH2 -2-amidinothiophene.HCl]	1	48 ng/mL	–
120 × 10^6 L/mole	4.6 × 10^6 L/mole	N=C(N)c1ccc(CNC(=O)[C@@H]2CCCN2C(=O)[C@@H](CC2CCCCC2)NCC(=O)O)nc1 [Example 66, HO2 CCH2 -D-Cha-Pro-2-NHCH2 -5-amidinopyridine.HCl]	7.9	180 ng/mL	270 ng/mL
11 × 10^6 L/mole	–	N=C(N)C1CCC(CNC(=O)[C@@H]2CCCN2C(=O)[C@@H](CC2CCCCC2)NCC(=O)O)NC1 (stereo partly drawn) [Example 67, HO2 CCH2 -D-Cha-Pro-2-NHCH2 -5-amidinopiperidine.HCl]	34.	1,800 ng/mL	1,300 ng/mL
340 × 10^6 L/mole	3.7 × 10^6 L/mole	Cl.N=C(N)c1ccc(CNC(=O)[C@@H]2CCCN2C(=O)[C@@H](CC2CCCCC2)NCC(=O)O)nn1 [Example 69, HO2 CCH2 -D-Cha-Pro-3-NHCH2 -6-amidinopyridazine.HCl]	5.	110 ng/mL	220 ng/mL
1,400 × 10^6 L/mole	240. × 10^6 L/mole	Cl.N=C(N)c1ccc(CNC(=O)[C@@H]2CCCN2C(=O)[C@@H](CC2CCCCC2)NCC(=O)O)c(F)c1 [Example 71, HO2 CCH2 -D-Cha-Pro-4-NHCH2 -3-F-benzamidine.HCl]	1	89 ng/mL	150 ng/mL
2,300 × 10^6 L/mole	280 × 10^6 L/mole	Cl.N=C(N)c1cc(F)c(CNC(=O)[C@@H]2CCCN2C(=O)[C@@H](CC2CCCCC2)NCC(=O)O)c(F)c1 [Example 72, HO2 CCH2 -D-Cha-Pro-4-NHCH2 -3,5-F2 -benzamidine.HCl]	1	160 ng/mL	160 ng/mL
28 × 10^6 L/mole	–	Cl.Nc1cc(CNC(=O)[C@@H]2CCCN2C(=O)[C@@H](CC2CCCCC2)NCC(=O)O)ccn1 [Example 73, HO2 CCH2 -D-Cha-Pro-4-NHCH2 -2-aminopyridine.HCl]	21	340 ng/mL	330 ng/mL
29 × 10^6 L/mole	–	Cl.Nc1ccc(CNC(=O)[C@@H]2CCCN2C(=O)[C@@H](CC2CCCCC2)NCC(=O)O)cn1 [Example 74, HO2 CCH2 -D-Cha-Pro-5-NHCH2 -2-aminopyridine.HCl]	20	420 ng/mL	350 ng/mL
0.45 × 10^6 L/mole	–	Cl.Nc1ccc(CCNC(=O)[C@@H]2CCCN2C(=O)[C@@H](CC2CCCCC2)NCC(=O)O)cn1 [Example 75, HO2 CCH2 -D-Cha-Pro-5-NHCH2 CH2 -2-aminopyridine.HCl]	–	–	–
12 × 10^6 L/mole	0.36 × 10^6 L/mole	Cl.Nc1cc(CCNC(=O)[C@@H]2CCCN2C(=O)[C@@H](CC2CCCCC2)NCC(=O)O)ccn1 [Example 76, HO2 CCH2 -D-Cha-Pro-4-NHCH2 CH2 -2-aminopyridine.HCl]	29	490 ng/mL	560 ng/mL
11 × 10^6 L/mole	8.6 × 10^6 L/mole	NCc1ccc(CNC(=O)[C@@H]2CCCN2C(=O)[C@@H](CC2CCCCC2)NCC(=O)O)cc1 [Example 78, HO2 CCH2 -D-Cha-Pro-4-NHCH2 C6 H4 CH2 NH2.HCl]	46	430 ng/mL	760 ng/mL
